In patent publication US9610294B2, “Methods and compositions for the treatment of fluid accumulation in and/or under the retina” (UNIVERSITE PARIS DESCARTES, priority 2010, dated 2017):
“Also recorded” adds a separate entry of the source.

How the values were obtained:
Assay type in all cases: in vivo, Lewis rats
[1] = system: retina; experiment: Intravitreous aldosterone injection in rat eyes: retinal morphology and thickness
Procedure: All experiments were performed in accordance with the European Communities Council Directive 86/609/EEC and approved by local ethical committees. Adult female Lewis rats (8-12 weeks old, Janvier, Le Genest-Saint-Isle, France) were used for preparation of RMG primary cultures, for retinal organotypic cultures and for in vivo experiments. Rats were sacrificed by carbon dioxide inhalation.
(§1) Anesthesia of rats was induced by intramuscular injection of ketamine (100 mg/kg, Virbac, Carros, France) and chlorpromazine (0.65 mg/kg, LARGACTIL®, Sanofi Aventis, Livron sur Drome, France). Intravitreous injections were performed using microfine (300 μl) syringes with 30 G needles under topical anesthesia (tetracaine 1%, Aldrich, Lyon, France). Rat eyes were injected with 5 μl aldosterone diluted in 0.9% saline to obtain a concentration of 200 nM for injection, corresponding to a final concentration of 20 nM in the vitreous. Control rat eyes were injected with 5 μl saline. Twenty-four hrs after injection, rats were sacrificed. Eyes were then removed for retinal flat mounting, immunohistochemistry and morphological analysis respectively.
Enucleated eyes were fixed in 2.5% glutaraldehyde in cacodylate buffer (0.1 M, pH 7.4). After 30 min, eyes were dissected at the level of the limbus and lens removed. The posterior part was fixed for a further 5 hrs, dehydrated in a graded alcohol series (50%, 70%, 95% and 100%) and embedded in epoxy resin. Semi-thin sections (1 J.Im) were cut using an ultramicrotome (Reichert Ultracut E, Leica, Wetzlar, Germany), and stained with toluidine blue. The morphology was examined under a light microscope (DMRB, Leica). Retinal thickness was measured manually every 100 μm from the peripheral to the posterior pole. For analysis, the retina was divided into 3 zones: periphery, middle and posterior pole. In each zone, 3-4 individual measurements were performed in each section. Two to 6 sections were analyzed per rat (3 rats with aldosterone intravitreous injection and 3 with sham injection)

[2] = system: AQP4; experiment: AQP4 immunofluorescence and flat-mount confocal imaging in retina of aldosterone-injected eyes; settings: aldosterone-injected vs sham-injected eyes
Procedure: as §1
Eyes were fixed for 15 min in 4% paraformaldehyde (PFA, LADD, Inland Europe, Conflans-sur-Lanterne, France). After washing, retinas were isolated, cut by 4 orthogonal incisions and post-fixed with acetone 100% at −20° C. for 15 min. […]
Eyes were snap frozen in Tissue-Tek OCT-compound (Bayer Diagnostics, Puteaux, France). […] Images were taken using a fluorescence microscope (Olympus BX51, Rungis, France) equipped with a CCD camera (Olympus DP70). […]

[3] = system: Kir4.1; experiment: Kir4.1 immunofluorescence in retina of aldosterone-injected eyes; settings: intravitreous aldosterone vs sham-injected
Procedure: as §1
(§2) Eyes were snap frozen in Tissue-Tek OCT-compound (Bayer Diagnostics, Puteaux, France). Ten μm cryostat sections of rat eyes were fixed in 4% PFA for 15 min and permeabilized with 0.1% Triton X-I00 for 30 min. Unspecific binding sites were blocked with 5% normal goat serum for 1 hr. The sections were then incubated with primary antibodies for 1 hr at room temperature, washed in PBS, and further incubated with secondary antibodies for 1 hr. […] Images were taken using a fluorescence microscope (Olympus BX51, Rungis, France) equipped with a CCD camera (Olympus DP70). […]

[4] = system: ENaC-α; experiment: ENaC-α immunolocalization in retina of aldosterone-injected eyes; settings: aldosterone-injected vs saline-injected eyes
Procedure: as §1, §2

[5] = single intravitreous injection, 20 nM, 24 hrs later

C[C@]12CCC(=O)C=C1CC[C@@H]1[C@@H]2[C@@H](O)C[C@]2(C=O)[C@@H](C(=O)CO)CC[C@@H]12 [aldosterone]
retinal swelling (increase compared to sham-injected eyes) ([1]; intravitreous injection, 20 nM final in the vitreous, 24 hrs): 24% | Retinal thickness compared to sham-injected eyes [1, 5]: significantly increased | retinal morphological changes on semi-thin sections [1, 5]: fluid accumulation in the entire retina | AQP4 localization / pattern of expression in retina [2]: additional localization; also recorded: extends all along RMG prolongations up to the OLM in their apical microvilli; also recorded: perivascular AQP4 fluorescence is more intense; also recorded: additional mislocalization | Kir4.1 localization in retina [3]: additional localization; also recorded: enhanced Kir4.1 immunofluorescence in the RMG apical microvilli in the OLM; also recorded: additional mislocalization | ENaC-α expression intensity and number of expressing cells in retina [4]: increased in the INL
